{"source": "paper PMC7536072", "about": "“Molecular and functional characterization of somatostatin-type signalling in a deuterostome invertebrate” (Open Biology, 2020)", "key": {"[1]": {"test_system": "cardiac stomach of A. rubens", "assay": "in vivo cardiac stomach eversion after injection into the perivisceral coelom", "parameters": "species or system Asterias rubens", "conditions": "n = 10", "procedure": "When starfish (A. rubens) feed, the cardiac stomach is relaxed and everted out of the mouth over the digestible soft tissues of prey (e.g. mussels). […] Therefore, because ArSS2 causes relaxation of cardiac stomach preparations in vitro, we investigated if ArSS2 also triggers cardiac stomach eversion when injected in vivo. Firstly, 15 medium-sized starfish were starved for one week to normalize their physiological status. A Hamilton […] 50 μl syringe (Sigma-Aldrich; Gillingham, UK) was used to inject 10 μl 1 mM ArSS2, or 10 μl 1 mM asterotocin (positive control) or 10 μl water (negative control) into the […] coelom of starfish. ArSS2 was tested on five individuals firstly and then the next day, asterotocin was tested on the same batch of five individuals. For another five individuals, asterotocin was tested first and then ArSS2 was tested on the following day. The remaining five individuals were injected with water as a control. Thus, both ArSS2 and asterotocin were tested on ten starfish. For each starfish, the test agent was injected via two sites in the dorsal body wall of the arms proximal to the junctions with the central disc region. Care was taken to inject test agents into the […] coelom and not into the cardiac stomach."}, "[2]": {"test_system": "tube foot preparations from A. rubens", "assay": "in vitro relaxation of tube foot preparations", "parameters": "species or system Asterias rubens", "procedure": "Synthetic ArSS2 ([…], with a disulfide bridge between the cysteine residues) was custom synthesized (Peptide Protein Research Ltd, Fareham, UK) to enable testing of its pharmacological effects on in vitro preparations of organs/muscles from A. rubens. ArSS2 was tested for its in vitro effects on the contractility of tube foot, apical muscle and cardiac stomach preparations from at least six different specimens of A. rubens. Individual tube foot preparations were dissected from starfish arms with their corresponding ampulla intact. […] Data collected from PowerLab were visualized as traces and analysed using LabChart (v. 8.0.7) software installed on a laptop computer (Lenovo E540, Windows 7 Professional). […]\nTo examine the effects of ArSS2 on tube foot and cardiac stomach preparations, 10^−6 M acetylcholine (ACh) or artificial seawater (ASW) containing 30 mM added KCl was used to induce contraction of these preparations, respectively. Once a stable baseline contracted state was achieved, synthetic ArSS2 was added into the organ bath to sequentially achieve final concentrations in the range of 10^−10 to 10^−6 M. For these experiments, the contracting effect of 10^−6 M ACh or ASW containing 30 mM added KCl was defined as 100% and the relaxing effects of ArSS2 were then calculated as a percentage reversal of the 100% contracted state."}, "[3]": {"conditions": "10 µl 10^−3 M into perivisceral coelom"}}, "note": "Bridges are numbered along the chain shown (N, C = ends). Where no end group is shown, it is not given here."}
{"sequence": "RAKNARCMADFWKGRGLVDC (disulfide 7-20 (inferred)) [ArSS2]", "values": [{"measurement": "mean maximal eversion, area of everted cardiac stomach", "setting": "[1]; 10 µl 10^−3 M into perivisceral coelom, 10 min recording", "result": "approximately 10 % of the area of the central disc region"}, {"measurement": "incidence of cardiac stomach eversion", "setting": "[1]; [3]", "result": "all of the animals"}, {"measurement": "time of mean maximal eversion after injection", "setting": "[1]; [3]", "result": "approximately 4 min"}, {"measurement": "magnitude of cardiac stomach eversion compared with asterotocin", "setting": "[1]; 10 µl 10^−3 M", "result": "much less than that induced by asterotocin"}, {"measurement": "reversal of ACh-induced tube foot contraction", "setting": "[2]; 10^−6 M, contraction induced by 10^−6 M acetylcholine = 100%, artificial seawater, approximately 11°C, mean ± s.e.m., n = 6", "result": "91% ± 13%"}, {"measurement": "relaxation of tube foot preparations", "setting": "[2]; pre-contracted with 10^−6 M ACh, tested 10^−10 to 10^−6 M", "result": "dose-dependent relaxation of tube foot preparations at concentrations between 10^−9 and 10^−6 M"}]}
